Consider ten compounds from patent US8741849B2, “Kinase inhibitors and uses thereof” (priority 2007, dated 2014).

The target in one assay is T1, PKB β (h) (Homo sapiens, UniProt P31751).
T1 construct: purchased Upstate (Millipore) KinaseProfiler service
Kind of assay: kinase profiler assay (radiometric). It counts as biochemical. The settings on record: read-out: Profile-1, PKB β (h). An excerpt:
KIP peptides […] [SEQ ID NO: 142], […] [SEQ ID NO: 173], and […] [SEQ ID NO: 163] were utilized to profile a variety of different kinases. The kinase profiler assay services provided by Upstate, a part of Millipore Corporation (Billerica, Mass.), were utilized to conduct the kinase profiles. The kinase profiler assays, which are radiometric, are based on measuring the amount of radioactive transfer from an ATP (y-^33P-ATP) to a substrate peptide using known concentrations of kinase enzyme, inhibitor, ATP, and buffer at defined time points and temperatures. Details on the reaction conditions for each kinase are available at www.millipore.com/drugdiscovery/dd3/KinaseProfiler. […] ROCK-1(h) (5-10 mU) was incubated with 8 mM MOPS pH 7.0, 0.2 mM EDTA, 30 i.IM of the peptide […] [SEQ ID NO: 189], 10 mM Mg acetate and y-^33P-ATP (specific activity approximately 500 cpm/pmol, concentration as required) in a final reaction volume of 25 pl. The reaction was initiated by the addition of the MgATP mixture in the absence and presence of inhibitor compounds. After incubation for 40 minutes at room temperature, the reaction was stopped by the addition of 5) 11 of a 3% phosphoric acid solution. 10 pl of the reaction mixture then was spotted onto a P30 filtermat. The filtermat was washed three times for 5 minutes in 75 mM phosphoric acid, once in methanol, dried and counted by scintillation counting. Where the kinase is uninhibited, the kinase phosphorylates a positively charged substrate with radioactive ATP, which then binds to a negatively charged filter membrane. Scintillation counts (radioactivity) directly correlate with kinase activity. […] All profile data less than 100 indicate kinase inhibition while data greater than 100 indicate kinase stimulation.

A further assay concerns AMPK (r). Kind of assay: kinase profiler assay (radiometric). In kind it is biochemical, rat. The settings on record: @ = 100 μm peptide; less than 100 = kinase inhibition, greater than 100 = stimulation. An excerpt:
KIP peptides […] [SEQ ID NO: 142], […] [SEQ ID NO: 173], and […] [SEQ ID NO: 163] were utilized to profile a variety of different kinases. The kinase profiler assay services provided by Upstate, a part of Millipore Corporation (Billerica, Mass.), were utilized to conduct the kinase profiles. The kinase profiler assays, which are radiometric, are based on measuring the amount of radioactive transfer from an ATP (y-^33P-ATP) to a substrate peptide using known concentrations of kinase enzyme, inhibitor, ATP, and buffer at defined time points and temperatures. Details on the reaction conditions for each kinase are available at www.millipore.com/drugdiscovery/dd3/KinaseProfiler. […] ROCK-1(h) (5-10 mU) was incubated with 8 mM MOPS pH 7.0, 0.2 mM EDTA, 30 i.IM of the peptide […] [SEQ ID NO: 189], 10 mM Mg acetate and y-^33P-ATP (specific activity approximately 500 cpm/pmol, concentration as required) in a final reaction volume of 25 pl. The reaction was initiated by the addition of the MgATP mixture in the absence and presence of inhibitor compounds. […] The filtermat was washed three times for 5 minutes in 75 mM phosphoric acid, once in methanol, dried and counted by scintillation counting. […] Scintillation counts (radioactivity) directly correlate with kinase activity. […]

The target in the next assay is MAPKAP kinase II (MK2) (Homo sapiens, UniProt P49137). Kind of assay: Omnia Lysate Assay for MAPKAP-K2: MK2 reaction velocity. In kind it is biochemical. The settings on record: same assay conditions as Example 1. Here is the method:
Using the Omnia™ Lysate Assay for MAPKAP-K2 kit (Invitrogen, Carlsbad, Calif.), the reaction velocity for MK2 was determined in the presence and absence of each of the peptides listed in Table 2. Briefly, inhibitor peptide concentrations at 12.5 μmol, 25 μmol, 50 μmol and 100 μmol were evaluated. The kit contains a proprietary reaction buffer to which the following are added (final concentrations are given): 1 mM ATP, 0.2 mM DTT, 10 μM MAPKAP-K2 Sox-modified peptide substrate, 5 ng MK2, and the peptide inhibitor of interest (final volume of 50 μL). The reactions were performed in the wells of a low protein-binding 96-well plate provided with the kit, and fluorescence readings at 485 nm were taken every 30 seconds for 20 minutes in a Molecular Devices M5 Spectrophotometer. A peptide having the sequence […]
The MK2 inhibition activity of […] [SEQ ID NO: 134] transduction domain was compared with the MK2 inhibition activity of other known transduction domains—[…] [SEQ ID NO: 135] and […] [SEQ ID NO: 190]. The transduction domains were tested for MK2 activity using the same assay conditions as Example 1.
A set of MK2 inhibitor peptides having transduction domains was synthesized (see Table 5). Variants included peptides with the […] [SEQ ID NO: 134] transduction domain and alanine substituted for asparagine, alanine substituted for glycine, or both alanine substitutions in the therapeutic domain. The same peptides with the […] [SEQ ID NO: 135] transduction domain also were prepared. The reaction velocities of these variants were compared to the reaction velocity of a blank with no inhibitor added.

The next assay concerns PKA. The settings on record: 1 μM AIP; cited from earlier work.
A further assay addresses T2, CaMKIV (Homo sapiens, UniProt Q16566).
T2 sequence (Q16566 1-473): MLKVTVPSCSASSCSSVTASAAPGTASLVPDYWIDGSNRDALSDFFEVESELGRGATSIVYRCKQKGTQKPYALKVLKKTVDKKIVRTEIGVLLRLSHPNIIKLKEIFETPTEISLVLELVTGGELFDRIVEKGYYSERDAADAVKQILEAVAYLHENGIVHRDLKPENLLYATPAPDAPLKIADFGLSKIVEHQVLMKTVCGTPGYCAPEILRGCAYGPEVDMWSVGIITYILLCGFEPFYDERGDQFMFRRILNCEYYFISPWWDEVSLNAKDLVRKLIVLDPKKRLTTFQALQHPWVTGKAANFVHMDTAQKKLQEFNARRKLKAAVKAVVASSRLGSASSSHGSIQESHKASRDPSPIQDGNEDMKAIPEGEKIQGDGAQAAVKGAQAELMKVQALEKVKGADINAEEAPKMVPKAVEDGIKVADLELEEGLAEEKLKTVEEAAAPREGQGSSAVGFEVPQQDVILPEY
The following applies: 1 μM AIP; cited from earlier work.

In assay [1] the test system is Ca2+/calmodulin-dependent protein kinase II (CaMKII). The settings on record: cited from earlier work.
The subject of another assay is PKC. The settings on record: 1 μM AIP; cited from earlier work.
Assay [2] relates to estrogen dependent MCF-7 breast cancer cells. Nature of the assay: Toxicity testing on cancer cell lines (MTT). In kind it is cell-based. The following applies: 72 hours, n=4, read-out: Cell Line IC50, MCF-7. Here is the method:
(§1) The seven cell lines were: estrogen dependent MCF-7 breast cancer cells, non estrogen dependent MDA 231 breast cancer cells, SF 539 central nervous system cancer cells, HT29 colon cancer cells, Paca 2 pancreatic cancer cells, PC3 prostate cancer cells, and A549 lung cancer cells. For each cell line, exponentially growing cells were trypsinized and seeded into individual wells of a 96-well plate. Cells were maintained in a humidified, 5% CO2 incubator at 37° C. for 24 hours. The next day, fresh media was added along with 1 μl of a stock solution of peptide to give final peptide concentrations of 0.3 μM, 1 μM, 3 μM, 10 μM, 30 μM, and 100 μM (n=4). Doxorubicin was tested as a positive control. After incubating the cells for 72 hours, to each well was added 20 μl of 0.5% MTT {3-([…])-2,5 diphenyl tetrazolium bromide} solution. The plates then were incubated for an additional 4 hours, at which time the absorbance at 570 nm was measured for each well using a microplate reader. The absorbance was plotted as function of peptide concentration, and IC50 values were calculated for each peptide for each cell line.

The subject of assay [3] is non estrogen dependent MDA 231 breast cancer cells. Kind of assay: Toxicity testing on cancer cell lines (MTT). The settings on record: 72 hours, n=4, read-out: Cell Line IC50, MDA 231. It counts as cell-based. How it is done: as §1
The test system of assay [4] is Paca 2 pancreatic cancer cells. Nature of the assay: Toxicity testing on cancer cell lines (MTT). In kind it is cell-based. The settings on record: 72 hours, n=4, read-out: Cell Line IC50, Paca 2. How it is done:
as §1

The subject of the next assay is HT29 colon cancer cells. Kind of assay: Toxicity testing on cancer cell lines (MTT). In kind it is cell-based. The following applies: 72 hours, n=4, read-out: Cell Line IC50, HT29. Here is the method: as §1
Assay [5] has as its system PC3 prostate cancer cells. Nature of the assay: Toxicity testing on cancer cell lines (MTT). In kind it is cell-based. The settings on record: 72 hours, n=4, read-out: Cell Line IC50, PC3. Here is the method:
as §1

The test system of another assay is A549 lung cancer cells. Kind of assay: Toxicity testing on cancer cell lines (MTT). In kind it is cell-based. The following applies: 72 hours, n=4, read-out: Cell Line IC50, A549. Here is the method: as §1
For assay [6], the system named is SF 539 central nervous system cancer cells. Kind of assay: Toxicity testing on cancer cell lines (MTT). In kind it is cell-based. The settings on record: 72 hours, n=4, read-out: Cell Line IC50, SF 539. Here is the method:
as §1

Where no end group is shown, it is not given here.

Chain of MAPKAP kinase II (MK2) (P49137 whole entry, species assumed): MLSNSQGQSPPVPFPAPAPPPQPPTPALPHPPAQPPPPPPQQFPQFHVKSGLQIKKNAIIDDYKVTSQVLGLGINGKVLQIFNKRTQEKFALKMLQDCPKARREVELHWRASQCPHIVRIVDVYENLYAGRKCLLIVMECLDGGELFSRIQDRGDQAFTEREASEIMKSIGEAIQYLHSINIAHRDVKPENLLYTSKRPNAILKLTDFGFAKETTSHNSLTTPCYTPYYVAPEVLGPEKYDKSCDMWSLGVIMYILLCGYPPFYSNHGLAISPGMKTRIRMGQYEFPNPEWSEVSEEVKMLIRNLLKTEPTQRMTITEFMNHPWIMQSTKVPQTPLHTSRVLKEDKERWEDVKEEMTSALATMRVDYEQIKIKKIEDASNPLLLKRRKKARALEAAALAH
T1 sequence (P31751 whole entry): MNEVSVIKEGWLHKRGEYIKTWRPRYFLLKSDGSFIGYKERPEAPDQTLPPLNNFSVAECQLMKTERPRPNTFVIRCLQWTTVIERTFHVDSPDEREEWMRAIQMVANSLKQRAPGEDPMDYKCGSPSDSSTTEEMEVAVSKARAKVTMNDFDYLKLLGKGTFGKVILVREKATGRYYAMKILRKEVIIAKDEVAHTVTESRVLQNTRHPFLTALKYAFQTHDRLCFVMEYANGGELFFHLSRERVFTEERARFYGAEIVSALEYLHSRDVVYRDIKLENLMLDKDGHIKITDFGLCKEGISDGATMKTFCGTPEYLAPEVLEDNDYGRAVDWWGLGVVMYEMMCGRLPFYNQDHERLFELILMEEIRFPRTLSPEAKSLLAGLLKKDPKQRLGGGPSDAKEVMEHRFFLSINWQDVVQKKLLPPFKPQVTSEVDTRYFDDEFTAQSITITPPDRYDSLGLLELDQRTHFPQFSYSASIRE

As for `CC(C)C[C@H](NC(=O)[C@H](C)NC(=O)[C@H](CCCCN)NC(=O)[C@H](CCCNC(=N)N)NC(=O)[C@H](Cc1ccc(O)cc1)NC(=O)[C@H](CC(C)C)NC(=O)[C@H](CCCNC(=N)N)NC(=O)[C@H](C)NC(=O)[C@H](C)NC(=O)[C@H](CC(C)C)NC(=O)[C@H](CCCCN)NC(=O)[C@H](C)NC(=O)[C@@H](N)Cc1ccccc1)C(=O)N[C@@H](C)C(=O)N[C@@H](CCCNC(=N)N)C(=O)N[C@@H](CCC(N)=O)C(=O)N[C@@H](CC(C)C)C(=O)NCC(=O)N[C@H](C(=O)N[C@@H](C)C(=O)N[C@@H](C)C(=O)O)C(C)C`, the activity at 100 µM on PKB β (h) was determined as 16%. Besides, the “Profile-1, AMPK (r)” value in the assay on AMPK (r) amounted to 101.
Consider `CC(C)C[C@H](NC(=O)[C@H](C)NC(=O)[C@H](CCCCN)NC(=O)[C@H](CCCNC(=N)N)NC(=O)[C@H](Cc1ccc(O)cc1)NC(=O)[C@H](CC(C)C)NC(=O)[C@H](CCCNC(=N)N)NC(=O)[C@H](C)NC(=O)[C@H](C)NC(=O)[C@H](CC(C)C)NC(=O)[C@H](CCCCN)NC(=O)[C@H](C)NC(=O)[C@H](Cc1ccccc1)NC(=O)[C@H](C)NC(=O)[C@@H](N)CCCCN)C(=O)N[C@@H](C)C(=O)N[C@@H](CCCNC(=N)N)C(=O)N[C@@H](CCC(N)=O)C(=O)N[C@@H](CC(C)C)C(=O)NCC(=O)N[C@H](C(=O)N[C@@H](C)C(=O)N[C@@H](C)C(=O)O)C(C)C`, for which the activity at 100 µM at PKB β (h) is 28%. In addition, in the assay with AMPK (r), the “Profile-1, AMPK (r)” value was 118.
For `CC[C@H](C)[C@H](NC(=O)[C@H](CCCNC(=N)N)NC(=O)[C@H](CCCNC(=N)N)NC(=O)[C@H](CC(C)C)NC(=O)[C@H](Cc1c[nH]c2ccccc12)NC(=O)[C@H](C)NC(=O)[C@H](CCCCN)NC(=O)[C@@H](NC(=O)[C@H](CCCNC(=N)N)NC(=O)[C@H](CCCNC(=N)N)NC(=O)[C@H](CC(C)C)NC(=O)[C@@H](N)Cc1c[nH]c2ccccc12)[C@@H](C)CC)C(=O)N[C@@H](CCCCN)C(=O)N[C@@H](C)C(=O)O`, on MAPKAP kinase II (MK2), the “MK2 inhibition (in words)” value is reported as “inhibited MK2 significantly more than KKKALNRQLGVAA”.
Same read-out and setting: as for `N=C(N)NCCC[C@H](NC(=O)[C@H](CCCNC(=N)N)NC(=O)[C@H](CCCNC(=N)N)NC(=O)[C@H](CCC(N)=O)NC(=O)[C@H](CCCNC(=N)N)NC(=O)[C@H](CCCNC(=N)N)NC(=O)[C@H](CCCCN)NC(=O)[C@H](CCCCN)NC(=O)[C@H](CCCNC(=N)N)NC(=O)CNC(=O)[C@@H](N)Cc1ccc(O)cc1)C(=O)O` [reference compound], the entry is “also inhibit MK2 but not nearly as much as WLRRIKAWLRRIKA”.
As a reminder, the IC50 is the point on the concentration scale where inhibition reaches its midpoint. As for KKALRRQEAVDAL [AIP], the PKA activity result with PKA was “not affected”. Moreover, the CaMKIV activity entry at CaMKIV is given as “not affected”. Further, in assay [1] (1 μM AIP), the CaMKII activity result is recorded as “completely inhibited”. For the same compound, in assay [1], the IC50 is 0.1 µM. Besides, in the assay on PKC, the PKC activity result is recorded as “not affected”.
As for WLRRIKA [WLRRIKA], at MAPKAP kinase II (MK2), the “MK2 inhibition (in words)” value is “same level of inhibition as the no inhibitor control”.
Take WLRRIKAHRRIKALARQLGVAA [Peptide 2]: the IC50 amounted to 7.8 µM in assay [2]; 19.9 µM in assay [3]; 19.5 µM in assay [4]; 26.4 µM in the assay on HT29 colon cancer cells; 28.9 µM in assay [5]; 31.9 µM in the assay on A549 lung cancer cells. The IC50 in assay [6] turned out to be 26 µM.
As for WLRRIKAWLRR [Peptide 3], the IC50 in [2] was 13.5 µM; in assay [3] it was 17.4 µM; in assay [4] it was 42.5 µM; in the assay on HT29 colon cancer cells, 20.7 µM; in [5] it was 35.5 µM; in the assay with A549 lung cancer cells, 34.3 µM. The half-maximal inhibitory concentration (IC50) in assay [6] came to 22 µM.
In the case of WLRRIKAWLRRALNRQLGVAA [Peptide 4], the IC50 in [2] is 4.4 µM; in [3] it was 12 µM; in [4], 11.2 µM; in the assay on HT29 colon cancer cells, 11.8 µM; in [5] it was 23.7 µM; in the assay on A549 lung cancer cells it was 12.5 µM. Further, the 50% inhibitory concentration (IC50) in assay [6] turned out to be 10 µM.
YARAAARQARA [reference compound]: the “MK2 inhibition (in words)” value on MAPKAP kinase II (MK2) is “also inhibit MK2 but not nearly as much as WLRRIKAWLRRIKA”.
